# How the values were obtained:
# [1] = tested on: RSV; test: In vivo prevention of RSV infection in cotton rats; conditions: 1000 mg/L Carrageenan in M. Similac®
# Excerpt: Cotton rats have been used as an RSV research animal model for about 20 years. The cotton rat has a similar pathological change in the lung to that observed in human infants when infected by RSV (Prince et al., 1978). […] It has also been observed that the intravenously-administered RSV-IgG has to reach a titer of ≥1:100 concentration to show the preventive effect (Prince et al., 1985). The same serum concentration of RSV-IgG in human infants is protective (Groothuis et al., 1993, 1995). Due to these similarities, the FDA has recommended the cotton rat as an appropriate model for RSV studies.
# To have a repeatable RSV nasal and lung infection, a high RSV dose (10^4 pfu/animal) was intra-nasally inoculated to all animals. The inoculum (100 μl) consisted of 50 μl of RSV stock solution and 50 μl of test product. […] In addition, some studies were performed in an infant formula in which the intact protein was replaced with a casein hydrolysate (Alimentum®). All animals consumed the regular rodent chow diet throughout the experimental period. Four days after RSV challenge, all animals were sacrificed. Their lung and nasal tissue were isolated for determination of RSV titers. As a positive control, a 5% RSV-IgG was always used. […]
# [2] = tested on: RSV; conditions: carrageenan removed from the formulation; cited from earlier work
substance,measurement,setting,value
Carrageenan,RSV titer in Lung,[1],3.06 ± 0.16 Log10 PFU/g tissue
same,RSV titer in Nose,[1],3.78 ± 0.47 Log10 PFU/g tissue
same,"anti-RSV activity, previously found",[2],anti-RSV activity
